What was measured:
[1] = biological target: T1, Adenosine receptor A1 (Homo sapiens, UniProt P30542)
T1 sequence (P30542 whole entry): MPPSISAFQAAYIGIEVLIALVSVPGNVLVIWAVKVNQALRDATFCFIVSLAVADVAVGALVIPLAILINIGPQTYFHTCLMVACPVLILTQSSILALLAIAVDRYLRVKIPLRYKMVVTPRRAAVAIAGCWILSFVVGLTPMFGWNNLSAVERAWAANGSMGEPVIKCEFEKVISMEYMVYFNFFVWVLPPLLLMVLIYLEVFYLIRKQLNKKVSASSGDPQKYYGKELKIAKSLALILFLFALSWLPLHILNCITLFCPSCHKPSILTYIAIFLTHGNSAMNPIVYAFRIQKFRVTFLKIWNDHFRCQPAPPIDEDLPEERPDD

[2] = biological target: T2, Adenosine receptor A3 (Homo sapiens, UniProt P0DMS8)
T2 sequence (P0DMS8 whole entry): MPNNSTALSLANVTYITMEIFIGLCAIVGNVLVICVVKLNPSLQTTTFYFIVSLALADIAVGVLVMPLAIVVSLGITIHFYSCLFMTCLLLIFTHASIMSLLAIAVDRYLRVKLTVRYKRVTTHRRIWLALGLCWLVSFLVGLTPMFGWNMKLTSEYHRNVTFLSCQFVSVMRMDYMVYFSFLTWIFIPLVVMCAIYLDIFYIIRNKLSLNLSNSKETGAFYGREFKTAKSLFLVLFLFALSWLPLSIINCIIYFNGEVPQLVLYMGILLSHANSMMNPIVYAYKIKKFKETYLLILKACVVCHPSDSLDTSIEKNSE

[3] = biological target: T3, Type-1 angiotensin II receptor (Homo sapiens, UniProt P30556)
T3 sequence (P30556 whole entry): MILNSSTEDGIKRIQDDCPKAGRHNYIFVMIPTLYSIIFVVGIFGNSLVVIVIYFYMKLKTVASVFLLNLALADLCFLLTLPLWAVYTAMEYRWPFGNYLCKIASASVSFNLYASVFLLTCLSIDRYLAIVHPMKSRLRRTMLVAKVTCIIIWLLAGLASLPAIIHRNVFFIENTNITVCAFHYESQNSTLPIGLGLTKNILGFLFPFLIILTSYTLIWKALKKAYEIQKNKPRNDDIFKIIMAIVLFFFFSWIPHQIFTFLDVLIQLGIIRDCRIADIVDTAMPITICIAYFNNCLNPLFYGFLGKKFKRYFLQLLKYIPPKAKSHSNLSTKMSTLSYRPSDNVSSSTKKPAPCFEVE

[4] = biological target: Vasopressin V1a receptor (Homo sapiens, UniProt P37288)
Sequence of Vasopressin V1a receptor (P37288 whole entry): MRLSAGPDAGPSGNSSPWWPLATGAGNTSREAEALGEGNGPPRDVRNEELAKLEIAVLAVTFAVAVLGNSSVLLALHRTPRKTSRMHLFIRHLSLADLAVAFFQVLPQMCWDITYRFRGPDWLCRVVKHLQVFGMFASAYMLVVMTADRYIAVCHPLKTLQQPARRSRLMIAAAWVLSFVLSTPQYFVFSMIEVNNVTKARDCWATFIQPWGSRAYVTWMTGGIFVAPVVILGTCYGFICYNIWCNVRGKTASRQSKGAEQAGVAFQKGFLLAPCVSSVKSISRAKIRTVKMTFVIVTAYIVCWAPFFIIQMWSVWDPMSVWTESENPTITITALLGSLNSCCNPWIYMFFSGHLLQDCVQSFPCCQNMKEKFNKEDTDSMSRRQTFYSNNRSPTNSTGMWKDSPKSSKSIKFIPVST

[5] = biological target: Cannabinoid receptor 1 (Homo sapiens, UniProt P21554); type: functional, cell-based
Sequence of Cannabinoid receptor 1 (P21554 whole entry): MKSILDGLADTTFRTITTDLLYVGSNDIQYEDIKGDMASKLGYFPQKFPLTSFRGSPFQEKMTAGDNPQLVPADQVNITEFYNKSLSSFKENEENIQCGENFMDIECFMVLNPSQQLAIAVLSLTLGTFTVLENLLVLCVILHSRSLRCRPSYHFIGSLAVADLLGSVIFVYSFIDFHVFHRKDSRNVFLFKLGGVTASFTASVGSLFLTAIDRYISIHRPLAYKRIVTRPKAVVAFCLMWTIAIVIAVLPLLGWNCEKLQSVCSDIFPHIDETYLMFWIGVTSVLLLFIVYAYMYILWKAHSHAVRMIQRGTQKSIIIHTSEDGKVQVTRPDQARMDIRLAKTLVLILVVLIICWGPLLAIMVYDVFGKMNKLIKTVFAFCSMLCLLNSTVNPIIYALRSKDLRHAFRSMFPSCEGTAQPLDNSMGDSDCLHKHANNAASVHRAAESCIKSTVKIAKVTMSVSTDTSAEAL

[6] = biological target: T4, Gamma-aminobutyric acid receptor subunit alpha-1 (Rattus norvegicus, UniProt P62813); type: functional
T4 sequence (P62813 whole entry): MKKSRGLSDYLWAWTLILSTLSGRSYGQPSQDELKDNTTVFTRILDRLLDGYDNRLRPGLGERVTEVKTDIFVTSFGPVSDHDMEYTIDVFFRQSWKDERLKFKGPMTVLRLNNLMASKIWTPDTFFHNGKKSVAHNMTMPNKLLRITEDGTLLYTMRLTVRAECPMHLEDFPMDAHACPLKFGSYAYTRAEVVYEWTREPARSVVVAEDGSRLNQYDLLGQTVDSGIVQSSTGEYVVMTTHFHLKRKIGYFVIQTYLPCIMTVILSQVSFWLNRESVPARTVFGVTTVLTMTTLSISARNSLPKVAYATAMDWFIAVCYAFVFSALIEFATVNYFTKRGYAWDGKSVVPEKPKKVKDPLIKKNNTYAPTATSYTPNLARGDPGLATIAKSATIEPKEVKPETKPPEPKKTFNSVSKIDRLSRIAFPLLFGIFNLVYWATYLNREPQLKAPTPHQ

[7] = biological target: Growth hormone secretagogue receptor type 1 (Homo sapiens, UniProt Q92847)
Sequence of Growth hormone secretagogue receptor type 1 (Q92847 whole entry): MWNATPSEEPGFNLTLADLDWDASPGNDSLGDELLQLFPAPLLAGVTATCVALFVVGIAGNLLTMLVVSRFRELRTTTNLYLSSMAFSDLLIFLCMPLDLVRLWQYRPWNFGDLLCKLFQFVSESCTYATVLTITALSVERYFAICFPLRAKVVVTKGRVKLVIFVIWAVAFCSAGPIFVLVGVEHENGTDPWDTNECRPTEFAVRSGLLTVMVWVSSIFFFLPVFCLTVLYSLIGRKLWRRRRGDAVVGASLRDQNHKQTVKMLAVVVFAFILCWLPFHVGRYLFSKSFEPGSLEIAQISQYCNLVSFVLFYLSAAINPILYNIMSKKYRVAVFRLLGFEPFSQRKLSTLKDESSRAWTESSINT

[8] = biological target: T5, Muscarinic acetylcholine receptor M2 (Homo sapiens, UniProt P08172); type: functional, cell-based
T5 sequence (P08172 whole entry): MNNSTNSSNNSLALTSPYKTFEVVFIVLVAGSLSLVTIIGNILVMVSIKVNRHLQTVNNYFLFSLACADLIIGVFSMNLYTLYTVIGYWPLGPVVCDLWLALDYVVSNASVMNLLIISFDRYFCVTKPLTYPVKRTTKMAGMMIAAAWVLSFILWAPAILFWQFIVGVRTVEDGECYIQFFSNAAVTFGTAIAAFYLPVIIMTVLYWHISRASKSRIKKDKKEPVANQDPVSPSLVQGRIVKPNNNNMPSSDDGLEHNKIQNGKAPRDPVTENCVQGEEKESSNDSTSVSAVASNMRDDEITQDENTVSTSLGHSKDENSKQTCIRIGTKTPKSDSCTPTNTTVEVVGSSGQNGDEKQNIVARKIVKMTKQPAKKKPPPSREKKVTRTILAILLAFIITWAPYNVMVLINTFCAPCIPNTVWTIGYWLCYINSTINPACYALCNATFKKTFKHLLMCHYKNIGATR

[9] = biological target: T5, Muscarinic acetylcholine receptor M2; type: functional, cell-based; remark: listed apart in the source
[10] = biological target: T4, Gamma-aminobutyric acid receptor subunit alpha-1
[11] = biological target: Histamine H2 receptor (Homo sapiens, UniProt P25021); type: functional, cell-based
Sequence of Histamine H2 receptor (P25021 whole entry): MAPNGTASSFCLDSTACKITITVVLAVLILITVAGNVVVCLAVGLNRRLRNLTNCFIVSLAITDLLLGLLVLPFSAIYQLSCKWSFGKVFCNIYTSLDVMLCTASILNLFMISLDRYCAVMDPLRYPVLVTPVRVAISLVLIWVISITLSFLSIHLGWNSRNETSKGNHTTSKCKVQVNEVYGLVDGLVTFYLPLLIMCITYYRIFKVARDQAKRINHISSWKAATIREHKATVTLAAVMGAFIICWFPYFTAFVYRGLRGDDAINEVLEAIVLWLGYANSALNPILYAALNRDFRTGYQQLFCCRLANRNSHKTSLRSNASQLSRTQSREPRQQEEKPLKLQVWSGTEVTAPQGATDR

[12] = biological target: Sodium-dependent dopamine transporter (Homo sapiens, UniProt Q01959)
Sequence of Sodium-dependent dopamine transporter (Q01959 whole entry): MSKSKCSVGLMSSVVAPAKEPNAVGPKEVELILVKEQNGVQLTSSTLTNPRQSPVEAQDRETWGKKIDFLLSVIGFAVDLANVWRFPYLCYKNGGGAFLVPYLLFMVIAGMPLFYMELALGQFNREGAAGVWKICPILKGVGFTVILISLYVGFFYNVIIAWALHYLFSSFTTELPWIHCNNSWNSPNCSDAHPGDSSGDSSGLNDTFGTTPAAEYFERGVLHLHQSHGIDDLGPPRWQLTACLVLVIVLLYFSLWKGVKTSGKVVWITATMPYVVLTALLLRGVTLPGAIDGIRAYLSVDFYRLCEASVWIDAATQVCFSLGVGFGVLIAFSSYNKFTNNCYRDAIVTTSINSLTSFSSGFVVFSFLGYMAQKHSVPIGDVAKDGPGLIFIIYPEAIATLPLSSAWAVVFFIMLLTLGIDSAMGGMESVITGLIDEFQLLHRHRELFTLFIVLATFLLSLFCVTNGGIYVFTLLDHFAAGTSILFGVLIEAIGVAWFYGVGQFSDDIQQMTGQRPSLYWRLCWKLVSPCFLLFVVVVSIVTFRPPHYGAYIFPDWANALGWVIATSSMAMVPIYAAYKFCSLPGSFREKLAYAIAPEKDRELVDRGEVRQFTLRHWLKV
Note: assay procedure not described here.

Row | Structure (SMILES) | AC50 [1] | AC50 [2] | AC50 [3] | AC50 [4] | AC50 [5] | AC50 [6] | AC50 [7] | AC50 [8] | AC50 [9] | AC50 [10] | AC50 [11] | AC50 [12]
1 | CN(C)CCC[C@@]1(c2ccc(F)cc2)OCc2cc(C#N)ccc21 [ESCITALOPRAM] | > 30 µM | > 30 µM | > 30 µM | > 30 µM | > 30 µM | > 30 µM | > 30 µM | – | – | – | – | –
2 | C[C@@H](NCCCc1cccc(C(F)(F)F)c1)c1cccc2ccccc12 | > 30 µM | 8.1 µM | > 30 µM | > 30 µM | > 30 µM | > 30 µM | 10 µM | > 30 µM | > 30 µM | > 30 µM | > 30 µM | 6.4 µM
3 | OC[C@H]1O[C@@](CO)(O[C@H]2O[C@H](CO)[C@@H](O)[C@H](O)[C@H]2O)[C@@H](O)[C@@H]1O [SUCROSE] | > 30 µM | > 30 µM | > 30 µM | > 30 µM | > 30 µM | > 30 µM | > 30 µM | > 30 µM | > 30 µM | > 30 µM | > 30 µM | > 30 µM
4 | CC(=O)O[C@]1(C(C)=O)CC[C@H]2[C@@H]3C=C(C)C4=CC(=O)CC[C@@H]4[C@H]3CC[C@@]21C [NOMEGESTROL ACETATE] | – | > 30 µM | – | – | > 30 µM | 2.5 µM | – | > 30 µM | > 30 µM | > 30 µM | > 30 µM | > 30 µM
5 | CCN1CCN(Cc2ccc(Nc3ncc(F)c(-c4cc(F)c5nc(C)n(C(C)C)c5c4)n3)nc2)CC1 [ABEMACICLIB] | > 30 µM | > 30 µM | > 30 µM | > 30 µM | > 30 µM | > 30 µM | > 30 µM | > 30 µM | > 30 µM | – | – | > 30 µM
6 | CN1C[C@H](C(=O)N[C@]2(C)O[C@@]3(O)[C@@H]4CCCN4C(=O)[C@H](Cc4ccccc4)N3C2=O)C=C2c3cccc4[nH]cc(c34)C[C@H]21 [ERGOTAMINE] | > 30 µM | > 30 µM | > 30 µM | > 30 µM | > 30 µM | > 30 µM | > 30 µM | > 30 µM | > 30 µM | – | – | > 30 µM
7 | CN(CC1(C)CCCO1)S(=O)(=O)c1ccc(Cl)c(S(N)(=O)=O)c1 (stereo not drawn) [MEFRUSIDE] | – | – | – | – | > 30 µM | > 30 µM | – | – | – | > 30 µM | > 30 µM | –
8 | COc1cc2nccc(Oc3ccc(NC(=O)C4(C(=O)Nc5ccc(F)cc5)CC4)cc3)c2cc1OC [CABOZANTINIB] | > 30 µM | 3.7 µM | > 30 µM | > 30 µM | > 30 µM | > 30 µM | > 30 µM | > 30 µM | > 30 µM | – | – | > 30 µM
9 | C#C[C@]1(O)CC[C@H]2[C@@H]3CCC4=CC(=O)CC[C@@H]4[C@H]3C(=C)C[C@@]21CC [ETONOGESTREL] | – | – | – | – | > 30 µM | 27 µM | – | – | – | > 30 µM | > 30 µM | –
10 | C[C@H](CCC(=O)O)[C@H]1CC[C@H]2[C@@H]3[C@@H](O)C[C@@H]4C[C@H](O)CC[C@]4(C)[C@H]3CC[C@]12C [URSODIOL] | > 30 µM | > 30 µM | > 30 µM | > 30 µM | > 30 µM | > 30 µM | > 30 µM | > 30 µM | > 30 µM | – | – | > 30 µM
11 | CC(C)(C)NCC(O)c1cc(O)cc(O)c1 (stereo not drawn) [TERBUTALINE] | > 30 µM | > 30 µM | > 30 µM | > 30 µM | – | – | > 30 µM | – | – | – | – | > 30 µM
12 | CC(S)C(=O)NCC(=O)O (stereo not drawn) [TIOPRONIN] | > 30 µM | > 30 µM | > 30 µM | > 30 µM | > 30 µM | > 30 µM | > 30 µM | > 30 µM | > 30 µM | – | – | > 30 µM

— ChEMBL document CHEMBL5291721, “A preclinical secondary pharmacology resource illuminates target-adverse drug reaction associations of marketed drugs” (Nat Commun, 2023)
